# Measurements from patent publication US10273290B2, “Hydrocarbon double-stapled stabilized HIV-1 GP41 heptad repeat domain peptides” (DANA-FARBER CANCER INSTITUTE, INC., priority 2009, dated 2019).
# Bridge positions count the residues as written; N and C are the ends. Square brackets hold non-standard residues; d marks the D form. Peptide text beside a SMILES is read from it. S5 = C=CCCC[C@](C)(N)C(=O)O; Nle = CCCC[C@H](N)C(=O)O
# How the values were obtained:
# HIV-1 HXBc2 = assay: HIV infectivity assay, HXBc2 strain; assay type: cell-based; conditions: compared to T20
# Description: Also the direct inhibitory activity of modified polypeptides and the antibodies targeted thereto can be quantified based upon their capacity to directly block HIV infection of CD4-positive and CCR5-expressing canine thymus cells. Recombinant HIV-1 viruses (eg. HXBc2, YU2, and additional strains available through the NIH AIDS Research and Reference Reagent Program) expressing firefly luciferase and containing the indicated envelope glycoproteins can be used to infect Cf2Th-CD4-CCR5/CXCR4 cells in the presence of serially diluted modified HIV-1 gp41 polypeptides or antibodies targeted thereto After 48 hours, the cells are lysed and luciferase activity is quantified (Si, Z. H., M. Cayabyab, and J. Sodroski, Journal of Virology, 2001. 75(9): p. 4208-4218 Si, Z. H., et al., PNAS, 2004. 101(14): p. 5036-5041). The identical experiment is performed with the amphotropic murine leukemia virus (AMLV), to monitor for any nonspecific effects of the modified polypeptides or antibodies. Similar control assays may be performed with unmodified or non-HIV polypeptides of the invention or control antibodies and are known in the art. […]
# HIV syncytia formation = assay: HIV syncytial formation assay; assay type: cell-based, HIV-1
# Experimental: Functional assays can be used to evaluate the activity of the antibodies produced. In culture, multinucleated giant cells or “syncytia” form as a result of direct cell-cell fusion between HIV-1-infected and uninfected CD4-positive cells. In the syncytia formation assay, an indicator cell line expressing the CD4 receptor, and a fusogenic cell line that lacks the CD4 receptor but contains HIV-1 proteins on the surface, fuse to generate 70-100 multinucleated giant cells in culture within 48 h. Syncytia are then counted using an inverted microscope. The ability of structured gp41 peptides or antibodies targeted thereto to inhibit syncytia formation in a dose-responsive fashion is used as a functional measure of fusion inhibition, for which IC50s can be determined and compared with peptides T20 and T649, or established neutralization antibodies (Brenner, T. J., et al. The Lancet, 1991. 337(8748): p. 1001-1005; Madani, N., et al., Journal of Virology, 2007. 81(2): p. 532-538).
# The truncated Stabilized Alpha Helix (SAH)-gp41 compound, SAH-gp41(626-645)(A), was successfully synthesized in high yield.
# [1] = Circular dichroism, α-helical content; assay type: physicochemical; conditions: comparative CD spectra, 20-mer residues 626-645
# In short: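 Far-UV CD spectra recorded at 20° C, 190-260 nm, 0.1 cm path, 10 accumulations. Percent α-helicity from mean residue ellipticity at 222 nm: 100×[θ]222/max[θ]222, with max[θ]222=−40,000×[1−(2.5/number of residues)]. Secondary-structure fractions also estimated by CDNN curve-fitting.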
structure (smiles),measurement,setting,value
CCCC[C@H](NC(C)=O)C(=O)N[C@H](C(=O)N[C@@H](Cc1c[nH]c2ccccc12)C(=O)N[C@@]1(C)CCCC=CCCC[C@@](C)(C(=O)N[C@@H](CCC(=O)O)C(=O)N[C@H](C(=O)N[C@@H](CC(N)=O)C(=O)N[C@@H](CC(N)=O)C(=O)N[C@@H](Cc2ccc(O)cc2)C(=O)N[C@H](C(=O)N[C@@H](CO)C(=O)N[C@@H](CC(C)C)C(=O)N[C@H](C(=O)N[C@@H](Cc2c[nH]cn2)C(=O)N[C@@H](CO)C(=O)N[C@@H](CC(C)C)C(N)=O)[C@@H](C)CC)[C@@H](C)O)[C@@H](C)CC)NC(=O)[C@H](CC(=O)O)NC(=O)[C@H](Cc2c[nH]c3ccccc23)NC(=O)[C@H](CCC(=O)O)NC1=O)[C@@H](C)O [SAH-gp41(626-645)(A)] (Ac-[Nle]TW[S5]EWD[S5]EINNYTSLIHSL-NH2; staple 4-8; N-terminus assumed),"anti-HXBc2 activity, in words",HIV-1 HXBc2,significant anti-HXBc2 activity
same,"inhibitory activity in syncytial formation assay, in words",HIV syncytia formation,markedly enhanced inhibitory activity
same,α-helical content,[1],48%
